Reference: US20210322509A1, “Methods for Reducing Perinatal Morbidity and / or Mortality” (CHU SAINTE-JUSTINE, priority 2016, published 2021)
Non-standard residues stand in square brackets, D forms with d. Residues, ends and D or L forms follow the SMILES beside them. ξ: configuration not given here. dThr(3ξ) = CC(O)[C@@H](N)C(=O)O

Experiments:
Format in all cases: in vivo, mice
[1] = test system: IL-1β, IL-6, IL-8 and PGF2α in neonatal lungs; test: ELISA of pro-inflammatory mediators in lungs of neonates; conditions: neonates from IL-1β-treated dams; tissue collected at birth
Experimental: FIGS. 3A to 3D show the levels of the pro-inflammatory mediators IL-1p (FIG. 3A), IL-6 (FIG. 3B), IL-8 (FIG. 3C) and PGF2a (FIG. 3D) in the lungs of neonates from sham and IL-1β-treated dams administered with vehicle, Compound 1 or Kineret, as assessed by ELISA. One-way ANOVA compared to IL-1β+Veh. *p<0.05, **p<0.01. n=4 pups in each groups.
(§1) Murine ELISA assays. The ELISA assay was performed using mouse Quantikine™ ELISA kits against IL-1β or IL-6 (R&D Systems®; #MLBOOC, M6000B), IL-8 and PGF2α (MyBioSource®; #MBS261967, #MBS264160) according to the manufacturer's instructions. Briefly, tissues (lungs, intestines and brains) collected at birth were homogenized in RIPA buffer containing proteases and 50 μL of either lung, intestine, or brain samples, recombinant mouse IL-1β, IL-6, IL-8 or PGF2α positive control or decreasing concentrations of a recombinant mouse IL-1β, IL-6, IL-8 or PGF2α standard were loaded into a 96-well plate pre-coated with a monoclonal anti-mouse IL-1β antibody and incubated for 2 hours at ambient temperature. Wells were washed 5 times and incubated with an enzyme-linked mouse polyclonal antibody specific to murine IL-1β for 2 hours. After another washing step, a substrate solution was added. The enzymatic reaction was stopped after 30 minutes and the plate was read at 450 nm, with wavelength correction set to 570 nm.

[2] = test system: IL-1β, IL-6, IL-8 and PGF2α in neonatal intestines; test: ELISA of pro-inflammatory mediators in intestines of neonates; conditions: neonates from IL-1β-treated dams; for levels of gut IL-6: relative to control
Experimental: FIGS. 5A to 5D show the levels of the pro-inflammatory mediators IL-1p (FIG. 5A), IL-6 (FIG. 5B), IL-8 (FIG. 5C) and PGF2a (FIG. 5D) in the intestines of neonates from sham and IL-1β-treated dams administered with vehicle, Compound 1 or Kineret, as assessed by ELISA. One-way ANOVA compared to IL-1β+Veh. *p<0.05. n=4 pups in each groups.
as §1

[3] = test system: intestines of pups from IL-1β-treated dams; test: Histology of ileum and colon (crypts, resident lymph nodes); conditions: for atrophies in intestinal crypts of the ileum: histology; for number of resident lymph nodes in the colon / size of resident lymph nodes in the colon: relative to vehicle
Experimental: FIG. 6A to 6D show representative histological analyses of the ileum of neonates from sham (FIG. 6A) and IL-1β-treated dams administered with vehicle (FIG. 6B), Compound 1 (FIG. 6C) or Kineret (FIG. 6D). Arrows indicate crypts. Scale, […].
FIGS. 7A and 7B show the number and size, respectively, of resident lymph nodes in the colon of neonates from sham and IL-1β-treated dams administered with vehicle, Compound 1 or Kineret. Sham (n=6 pups), IL-1β (n=3 pups), IL-1β+Compound 1 (n=6 pups), IL-1β+Kin (n=8 pups).
Histology. Intestines (from ileum to rectum) and lungs of post-term (PT) 15 mice were collected and fixed in 10% formalin during >48 h and were coated in paraffin. Samples were cut with a microtome (thickness=[…]) and mounted on lamella. Intestines were colored using hematoxylin-phloxine-saffron (HPS), whereas lungs were colored using H&E. Images were taken with a slidescanner (Axioscan®). Quantification of images was performed under blind evaluation of groups using Zen2 software.
Potential damages to the ileum and in the colon were evaluated by histologic analyses. In the ileum, pups from IL-1β-treated dams administered with vehicle had consistent atrophies in their intestinal crypts (FIG. 6B), and this was not observed following administration of compound 1 (FIG. 6C) or Kineret® (FIG. 6D). In the colon, the number of resident lymph nodes per cm, and their size, were measured. Since lymph nodes are part of the innate immunity and play an important role in the immune surveillance of the colon, the number and size of resident lymph nodes is a marker of the immune integrity/health of the intestine.

## CC(C)C[C@@H](NC(=O)[C@@H](CCC(=O)O)NC(=O)[C@H](NC(=O)[C@H](NC(=O)[C@@H](Cc1ccc(O)cc1)NC(=O)[C@H](N)CCCNC(=N)N)C(C)O)C(C)C)C(=O)N[C@H](C)C(N)=O (stereo partly drawn) [compound 1] (H-[dR][dY][dThr(3ξ)][dV][dE][dL][dA]-NH2)
[1]
  levels of all cytokines tested (IL-1β, IL-6, IL-8, PGF2α) in neonatal lungs: significant reduction
[2]
  increased IL-1β and IL-8 in neonatal intestines: alleviated this effect
  levels of gut IL-6: clear trend toward decreased levels
[3]
  atrophies in intestinal crypts of the ileum: not observed
  number of resident lymph nodes in the colon: prevented
  size of resident lymph nodes in the colon: prevented

## Kineret: recombinant form of the human interleukin-1 receptor antagonist (IL-1Ra), purchased from Swedish Orphan Biovitrum AB
[1]
  levels of all cytokines tested (IL-1β, IL-6, IL-8, PGF2α) in neonatal lungs: only effective at significantly decreasing lung IL-1β levels
[2]
  levels of gut IL-6: not observed
[3]
  atrophies in intestinal crypts of the ileum: not observed
  number of resident lymph nodes in the colon: not increased at statistically significant levels
  size of resident lymph nodes in the colon: significant increase
